Values quoted from earlier work as cited in US10391087B2, “Combination of oxymetazoline and ipratropium in topical nasal application for the treatment of a cough” (priority 2015, dated 2019).
Like-named read-outs stand apart in the source and are kept apart here.

What was measured:
[1] = system: ileum guinea pigs nerve tissue; settings: range 20 to 70% with increasing concentrations of noradrenaline
[2] = system: nasal secretion (rhinorrhea)
[3] = system: cardiac response of rabbit vagal electrical stimulation; settings: rabbit heart
human α1A-adrenoceptors = molecular target: T1, human α1A-adrenoceptors (Homo sapiens, UniProt P35348); settings: heterologous cells expressing human α1A-adrenoceptors
T1 sequence (P35348 1-466): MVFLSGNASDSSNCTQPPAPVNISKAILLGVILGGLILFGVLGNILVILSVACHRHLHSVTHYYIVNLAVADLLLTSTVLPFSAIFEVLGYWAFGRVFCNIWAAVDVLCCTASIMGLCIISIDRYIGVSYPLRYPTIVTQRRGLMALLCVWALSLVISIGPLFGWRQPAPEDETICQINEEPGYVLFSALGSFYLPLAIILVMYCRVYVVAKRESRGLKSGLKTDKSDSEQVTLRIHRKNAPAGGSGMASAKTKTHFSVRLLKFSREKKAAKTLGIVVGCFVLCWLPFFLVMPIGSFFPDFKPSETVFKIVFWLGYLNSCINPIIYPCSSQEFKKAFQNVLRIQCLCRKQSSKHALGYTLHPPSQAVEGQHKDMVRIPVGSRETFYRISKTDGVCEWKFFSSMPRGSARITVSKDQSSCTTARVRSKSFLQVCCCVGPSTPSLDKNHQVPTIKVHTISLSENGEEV

α-1 and α-2 receptors = settings: inhibited by α-1 antagonist prazosin, minimal inhibition by α-2 antagonist yohimbine

For `NC[C@H](O)c1ccc(O)c(O)c1` [Noradrenaline, noradrenaline], the “reduction of acetilcoline discharge, average” value [1] is given as 56.8%.

For `CC(C)[N+]1(C)[C@@H]2CC[C@H]1C[C@@H](OC(=O)C(CO)c1ccccc1)C2` (stereo partly shown) [ipratropium], the nasal discharge ([2]; four studies, ipratropium alone, intranasally) is given as “lower nasal discharge”.

For `Cc1cc(C(C)(C)C)c(O)c(C)c1CC1=NCCN1` [oximetazoline, oxymetazoline], the “cardiac response of vagal electrical stimulation” value [3] is listed as “significantly inhibited”, the blood pressure (large doses of 0.3%) is listed as “significant increase in blood pressure” and the blood pressure (standard doses of 0.01 to 0.1%) is listed as “no”. For the same compound, the “Ca2+ responses” value (human α1A-adrenoceptors) was “induce responses Ca^2+” and the contraction (α-1 and α-2 receptors) was “dose dependent contraction”.

In the case of `Cc1cc(C(C)(C)C)cc(C)c1CC1=NCCN1` [xilometazoline], the rhinorrhea ([2]; 5 to 10 days after start of the infectious process, p<0.05) is listed as “decreased rhinorrhea”, the “nasal secretion compared with placebo” value ([2]; Eccles 2008, xilometazoline alone, p<0.05) is listed as “decreased nasal secretion” and the rhinorrhea ([2]; another study, measured on day 1 of administration) is listed as “increases”.
